From patent publication US10736911B2, “Use of a DHODH inhibitor in combination with an inhibitor of pyrimidine salvage” (The Board of Trustees of the Leland Stanford Junior …, priority 2015, dated 2020)
Like-named read-outs stand apart in the source and are kept apart here.

Columns and labels:
[1] = test system: chronic myelogenous leukemia (CML); settings: in vivo; cited from earlier work
[2] = test system: K562 cells; experiment: K562 cell count, DP with GSK983 in uridine supplemented media; format: cell-based; settings: Homo sapiens, 50 nM GSK983, 20 μM uridine supplemented media, 72 h
[3] = test system: uridine salvage in K562 and A549 cells; experiment: Uridine salvage inhibition by 5-ethynyl-uridine (5-EU) incorporation and click chemistry; format: cell-based; settings: Homo sapiens
[4] = test system: DENV; experiment: DENV antiviral assay for combination of GSK983 and DP; format: cell-based, dengue virus serotype 2 strain 16681; settings: Dengue virus
[5] = test system: MV4-11 cells; experiment: MV4-11 cell killing, DP with GSK983 in uridine supplemented media; format: cell-based; settings: Homo sapiens, 158 nM GSK983, 20 μM uridine supplemented media
[6] = test system: A549 lung cancer cell line; experiment: A549 cell count, DP with GSK983 in uridine supplemented media; format: cell-based; settings: Homo sapiens, 158 nM GSK983, 20 μM uridine supplemented media, 72 h, read-out: IC50(DP), A549 viable cell count
[7] = test system: DENV; experiment: DENV antiviral assay (DENV-Luc replication in A549 cells); format: cell-based, dengue virus serotype 2 strain 16681; settings: for IC50: Dengue virus, A549, 72 h
[8] = test system: K562 cells; experiment: GSK983 dose response, K562 cell growth (viable cells by flow cytometry); format: cell-based; settings: Homo sapiens, 72 h treatment, viable cells counted by flow cytometry, read-out: IC50, inhibition of K562 cell growth
Description: GSK983 dose response and growth time course in K562 cells. To determine the dose response of K562 cells to GSK983, K562 cells were seeded into 24-well plates at a density of 50,000 cells/mL and treated with GSK983 at the indicated concentration for 72 h. Following 72 h treatment, cells were harvested and the density of viable cells was determined by flow cytometry (FSC/SSC) using a BD Accuri C6 Flow Cytometer. IC50 values were calculated by fitting a 4-parameter logistic equation to the data. […] At the indicated time points, cells were harvested and the density of viable cells was determined by flow cytometry (FSC/SSC) using a BD Accuri C6 Flow Cytometer.

[9] = test system: K562 cells; experiment: Annexin V-FITC/7-AAD apoptosis assay; format: cell-based, human; settings: 72 h GSK983 treatment
Description: Annexin V-FITC/7-AAD apoptosis assay. K562 cells were seeded into 24-well plates at a density of 50,000 cells/mL and treated with the indicated concentration of GSK983 for 72 h. The final concentration of DMSO in each well was <0.1%. Following 72 h GSK983 treatment, cells were harvested and pelleted (399 g, 5 min). The supernatant was removed by vacuum. Cell death by apoptosis was analyzed using a BioVision Annexin V-FITC Apoptosis Kit (catalog number K101-100). A staining solution was prepared by first diluting the provided Annexin V-FITC solution in binding buffer according to the specifications of the manufacturer. 7-AAD was added from a stock solution in DMSO (0.67 mg/mL) such that the final concentration of 7-AAD in the staining solution was 2.5 μg/mL. Cell samples were resuspended in 0.5 mL of the staining solution. Samples were incubated at room temperature for 10 min in the dark and analyzed by flow cytometry using a BD Accuri C6 Flow Cytometer. FITC fluorescence was detected in FL1 and 7-AAD fluorescence was detected in FL3.

[10] = test system: A549 cells; experiment: A549 cell viability assay accompanying the DENV assay; format: cell-based, human; settings: 30 nM GSK983 and 1 mM deoxycytidine, 72 h
[11] = target: T1, recombinant human CMPK1 (Homo sapiens, UniProt P30085); experiment: In vitro enzyme activity assay with recombinant human CMPK1 (ATP consumption); format: biochemical; settings: GSK983 concentrations up to 10 μM
T1 sequence (P30085 1-196): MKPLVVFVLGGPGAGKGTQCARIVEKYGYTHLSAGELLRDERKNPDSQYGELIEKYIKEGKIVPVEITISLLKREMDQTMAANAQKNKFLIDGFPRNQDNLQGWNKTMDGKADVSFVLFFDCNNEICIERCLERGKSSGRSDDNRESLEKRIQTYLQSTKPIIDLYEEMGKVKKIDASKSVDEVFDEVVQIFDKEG
Description: In vitro enzyme activity assays with recombinant human CMPK1. The activity of recombinant human CMPK1 was measured in the presence of GSK983 using an ATP consumption assay. CMPK1 (10 nM) was added to a reaction buffer containing Tris (50 mM, pH 7.5), MgCl2 (2 mM), DTT (2 mM), ATP (100 μM), CMP (100 μM), and GSK983 (0-10 μM, from a DMSO stock solution). The final concentration of DMSO in all reaction mixtures was 2% (v/v). Enzyme activity assays were conducted at 37° C. The consumption of phosphoryl donor ATP was monitored using a Promega Kinase-Glo Luminescent Kinase Assay kit according to the manufacturer's instructions. We observed no effect of GSK983 on CMPK1 activity in vitro at GSK983 concentrations up to 10 μM.

[12] = target: recombinant human DHODH (Homo sapiens, UniProt Q02127); experiment: In vitro enzyme activity assay with recombinant human Δ29DHODH (DCPIP coupled assay); format: biochemical; settings: recombinant human Δ29DHODH 10 nM, DHO 200 μM; read-out: Ki, DHODH, competitive with respect to decylubiquinone binding
recombinant human DHODH, sequence (Q02127 30-395): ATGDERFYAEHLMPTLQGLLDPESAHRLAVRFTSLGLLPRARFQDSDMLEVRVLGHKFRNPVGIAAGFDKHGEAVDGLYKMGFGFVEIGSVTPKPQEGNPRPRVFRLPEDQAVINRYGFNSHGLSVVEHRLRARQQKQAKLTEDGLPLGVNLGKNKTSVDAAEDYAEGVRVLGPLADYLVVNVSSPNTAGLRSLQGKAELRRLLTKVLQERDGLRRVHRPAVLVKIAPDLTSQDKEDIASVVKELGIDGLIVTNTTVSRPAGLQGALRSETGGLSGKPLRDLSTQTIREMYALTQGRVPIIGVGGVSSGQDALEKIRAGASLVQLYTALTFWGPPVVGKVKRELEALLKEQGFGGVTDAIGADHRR
Description: The reduction of DCPIP can be monitored by the loss of absorbance at 610 nm (ε=21,500 M−1cm-1). Kinetic constants were calculated from measurements in which Δ29DHODH (10 nM) was either titrated with different concentrations of decylubiquinone (QD, 10-60 μM) at a fixed concentration of DHO (200 μM) or titrated with different concentrations of DHO (10-60 μM) at a fixed concentration of QD (100 μM). Enzymatic assays were conducted at 25° C. in a reaction buffer containing Tris (100 mM, pH 8.0), NaCl (150 mM), DCPIP (60 μM), glycerol (10% v/v), and Triton X-100 (0.1% v/v). The Km values for Δ29DHODH (15 μM for DHO and 14 μM for QD) were in good agreement with previously reported values for both the full-size and N-terminally truncated enzyme.
For each inhibitor compound, three reactions were prepared: a control reaction containing no inhibitor and two reactions containing different inhibitor concentrations. Δ29DHODH was incubated with inhibitor compounds at room temperature for 5 min. The indicated concentration of QD and DHO (200 μM) were added to the reaction mixtures and absorbance at 610 nm was monitored using a PerkinElmer Lamda 25 UV-Vis spectrophotometer. For enzyme activity assays, inhibitor compounds were prepared as 1 mM stock solutions in DMSO. A QD stock solution (10 mM) was prepared in a buffer containing Tris (100 mM, pH 8.0) and Triton X-100 (1.0% v/v). […]

[13] = test system: K562 cells; experiment: Cell cycle analysis based on total DNA content (propidium iodide); set-up: species or system human; settings: 24 h GSK983 treatment
Description: Cell cycle analysis based on total DNA content (propidium iodide). […] Cells were treated with the indicated concentration of GSK983 for 24 h. […] Following 24 treatment, cells were harvested and pelleted (300 g, 5 min). The supernatant was removed by vacuum and the cells were washed (0.5 mL 1×PBS). Cells were resuspended in 70% EtOH (1 mL, 0° C.) with mild vortexing. Cells were fixed in 70% EtOH overnight at 4° C. The following day, fixed cells were pelleted (1900 g, 5 min), washed (0.5 mL 1×PBS), and resuspended in 200 μL of a total DNA content staining solution (1×PBS with 50 μg/mL RNase A and 10 μg/mL propidium iodide). Samples were incubated for 30 min at 37° C. and analyzed by flow cytometry using a BD Accuri C6 Flow Cytometer. Propidium iodide fluorescence was detected in FL2.

[14] = test system: VEEV; experiment: microbe, parasite or virus in culture; format: cell-based, Venezuelan equine encephalitis virus (vaccine strain TC-83); settings: Venezuelan equine encephalitis virus, A549, read-out: IC50, inhibition of VEEV replication
[15] = test system: variety of unrelated viruses; settings: Harvey et al. (2009); read-out: EC50, inhibition of replication of a variety of unrelated viruses in vitro; cited from earlier work
[16] = test system: DENV; format: cell-based, dengue virus serotype 2 strain 16681; settings: 48 nM GSK983, 20 μM uridine, UCK2 shRNA derivative

In the case of `Cc1c(-c2ccc(-c3ccccc3F)cc2)nc2ccc(F)cc2c1C(=O)O` [brequinar], the “Efficacy towards CML in mouse models” value [1] is listed as “effective”.
With `OCCN(CCO)c1nc(N2CCCCC2)c2nc(N(CCO)CCO)nc(N3CCCCC3)c2n1` [DP, dipyridamole] the IC50 [2] was 110 nM, the IC50 [3] was 200 nM and the EC50 ([4]; A549, 48 h, read-out: EC50 of DP, DENV luciferase signal, 2 days post-infection) was 135 nM. The EC50 ([4]; A549, 72 h, read-out: EC50 of DP, DENV luciferase signal, 3 days post-infection) was 164 nM, the IC50 [5] was 110 nM and the IC50 [6] was 230 nM.
In the case of `O=C(N[C@@H]1CCCc2c1[nH]c1ccc(Cl)cc21)c1ccccn1` [GSK983, (R)—N-(6-Chloro-2,3,4,9-tetrahydro-1H-carbazol-1-yl)picolinamide], the “Reduction in DENV replication” value ([7]; 30 nM GSK983 and 1 mM deoxycytidine, A549 cells) is reported as roughly 90%, the “Antiviral activity against DENV with uridine supplementation” value ([7]; A549 cells, 1 mM uridine) is reported as “completely abolished the antiviral activity” and the IC50 ([7]; read-out: IC50, inhibition of DENV replication) is reported as 13.3 nM. The IC50 ([7]; read-out: IC50, inhibition of DENV replication with exogenous deoxycytidine) was 13.5 nM, the IC50 [8] was 21 nM and the “Cell death by apoptosis” value [9] was “dose dependent increase in K562 cell death by apoptosis”. The “Effect on A549 cell growth” value [10] was “minimal effect”, the “Effect on in vitro CMPK1 activity” value [11] was “no effect” and the Ki [12] was 403 nM. For the same compound, the Cell cycle effect [13] was “accumulation of K562 cells in S phase”, the IC50 [14] was 12.8 nM and the EC50 [15] was 5 to 20 nM. The “DENV replication in A549 UCK2 shRNA cells” value [16] was “inhibited viral replication in the latter cell-line”.
